24 compounds from patent US20230399312A1, “SUBSTITUTED PYRIMIDINES AND METHODS OF USE” (THERAVANCE BIOPHARMA R&D IP, LLC, priority 2020, published 2023) can be followed below.

For assay [1], the target named is T1, recombinant human ALK5 (TGF-βR1) protein (Homo sapiens, UniProt P36897).
T1 construct: purchased Life Technologies PR9075A
T1 sequence (P36897 34-503): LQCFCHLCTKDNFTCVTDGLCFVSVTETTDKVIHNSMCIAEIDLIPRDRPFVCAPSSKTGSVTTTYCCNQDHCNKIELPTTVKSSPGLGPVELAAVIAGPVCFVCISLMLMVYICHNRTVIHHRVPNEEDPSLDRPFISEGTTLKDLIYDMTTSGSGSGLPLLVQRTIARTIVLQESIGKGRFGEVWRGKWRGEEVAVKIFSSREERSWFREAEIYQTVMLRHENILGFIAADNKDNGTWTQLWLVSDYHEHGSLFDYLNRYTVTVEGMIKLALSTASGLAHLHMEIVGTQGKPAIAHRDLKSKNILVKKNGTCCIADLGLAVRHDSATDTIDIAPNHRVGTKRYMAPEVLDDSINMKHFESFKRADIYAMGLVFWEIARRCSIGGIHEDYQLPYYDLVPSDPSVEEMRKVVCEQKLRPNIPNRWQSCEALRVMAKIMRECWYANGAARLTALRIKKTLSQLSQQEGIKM
The assay can be described thus: Biochemical ALK5 (TGF-βR1) assay to measure pKi (LANCE Ultra ULight kinase assay). To be noted: apparent pKi, converted from pIC50 by Cheng-Prusoff. The essentials: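 Enzyme was preincubated with compound for 60 min at room temperature, then ATP (added from a 125 μM 5× stock with 2 mM DTT) started a 60 min reaction at 37 °C. EDTA plus Eu-anti-phospho-Topo2α (Thr1342) antibody stopped it; TR-FRET pIC50 values were converted to pKi by Cheng-Prusoff.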
(In general: Time-resolved FRET reads energy transfer from a long-lived donor to a nearby acceptor.)

The test system of assay [2] is TGF-β-stimulated SMAD3 phosphorylation in BEAS-2B cells. The assay can be described thus: Cellular ALK5 potency assay, inhibition of TGF-β stimulated pSMAD3 formation in BEAS-2B cells. To be noted: Homo sapiens, pSMAD3, TGF-β 10 ng/mL, read-out: BEAS2B pIC50 (converted). It is filed as cell-based. The essentials:
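BEAS-2B cells, HBSS/25 mM HEPES/1% BSA buffer; cpd 1 h, 37 °C; TGF-β 10 ng/mL final, 30 min; lysis, AlphaLISA pSMAD3 read next day. pIC50 vs stimulated no-compound baseline.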

On to `Cc1cccc(-c2nccc(Nc3ccnc(Nc4ccc(C)c(CO)c4)n3)n2)n1` [Compound 61, [2-methyl-5-[[4-[[2-(6-methyl-2-pyridyl)pyrimidin-4-yl]amino]pyrimidin-2-yl]amino]phenyl]methanol], for which the Ki in assay [1] was 0.0398 to 0.316 nM. The IC50 in assay [2] was 25.1 to 158 nM.

Turning to `COC(=O)c1ccc(Nc2nccc(Nc3ccnc(-c4cccc(C)n4)n3)n2)cc1` [Compound 62, methyl 4-[[4-[[2-(6-methyl-2-pyridyl)pyrimidin-4-yl]amino]pyrimidin-2-yl]amino]benzoate], the Ki in assay [1] is 0.398 to 3.16 nM. Also, in assay [2], the IC50 is 25.1 to 158 nM.

For `Cc1cccc(-c2nccc(Nc3ccnc(Nc4ccc(S(=O)(=O)N(C)CCN)cc4)n3)n2)n1` [Compound 63, N-(2-aminoethyl)-N-methyl-4-[[4-[[2-(6-methyl-2-pyridyl)pyrimidin-4-yl]amino]pyrimidin-2-yl]amino]benzenesulfonamide], in assay [1], the Ki is 0.0398 to 0.316 nM. Also, the IC50 in assay [2] is 25.1 to 158 nM.

As for `COC[C@H]1CN(Cc2ccc(Nc3nccc(Nc4ccnc(-c5cccc(C)n5)n4)n3)cc2)CCN1` [Compound 64, N2-[4-[[(3R)-3-(methoxymethyl)piperazin-1-yl]methyl]phenyl]-N4-[2-(6-methyl-2-pyridyl)pyrimidin-4-yl]pyrimidine-2,4-diamine], the Ki in assay [1] was 0.0398 to 0.316 nM. Besides, the IC50 in assay [2] was 25.1 to 158 nM.

For the compound `Cc1cccc(-c2nccc(Nc3ccnc(Nc4ccc(NC[C@H]5CCCN5)cc4)n3)n2)n1` [Compound 65, N4-[2-(6-methyl-2-pyridyl)pyrimidin-4-yl]-N2-[4-[[(2R)-pyrrolidin-2-yl]methylamino]phenyl] pyrimidine-2,4-diamine], the Ki in assay [1] was 0.0398 to 0.316 nM. The IC50 in assay [2] was 25.1 to 158 nM.

Turning to `Cc1cccc(-c2nccc(Nc3ccnc(Nc4cccc(C(=O)OC5CCNCC5)c4)n3)n2)n1` [Compound 66, 4-piperidyl 3-[[4-[[2-(6-methyl-2-pyridyl)pyrimidin-4-yl]amino]pyrimidin-2-yl]amino]benzoate], the Ki in assay [1] was 0.398 to 3.16 nM. In addition, in assay [2], the IC50 was 25.1 to 158 nM.

On to `Cc1cccc(-c2nccc(Nc3ccnc(Nc4ccc(CN5CCC[C@H](C(=O)OCC6CNC6)C5)cc4)n3)n2)n1` [Compound 67, azetidin-3-ylmethyl (3S)-1-[[4-[[4-[[2-(6-methyl-2-pyridyl)pyrimidin-4-yl]amino]pyrimidin-2-yl]amino]phenyl]methyl] piperidine-3-carboxylate], for which the Ki in assay [1] is 0.0398 to 0.316 nM. For the same compound, the IC50 in assay [2] is 25.1 to 158 nM.

For `Cc1cccc(-c2nccc(Nc3ccnc(Nc4ccc(CN5CC(C(=O)O[C@@H]6CCN(C)C6)C5)cc4)n3)n2)n1` [Compound 69, [(3R)-1-methylpyrrolidin-3-yl] 1-[[4-[[4-[[2-(6-methyl-2-pyridyl)pyrimidin-4-yl]amino]pyrimidin-2-yl]amino]phenyl]methyl] azetidine-3-carboxylate], the Ki in assay [1] was 0.0398 to 0.316 nM. The IC50 in assay [2] was 25.1 to 158 nM.

Regarding `Cc1cccc(-c2nccc(Nc3ccnc(Nc4ccc(S(=O)(=O)NCCN(C)C)cc4)n3)n2)n1` [Compound 70, N-[2-(dimethylamino)ethyl]-4-[[4-[[2-(6-methyl-2-pyridyl)pyrimidin-4-yl]amino]pyrimidin-2-yl]amino]benzenesulfonamide], the Ki in assay [1] was 0.0398 to 0.316 nM. Besides, the IC50 in assay [2] was 25.1 to 158 nM.

With `Cc1cccc(-c2nccc(Nc3ccnc(Nc4ccc(N5CCC(C(=O)O)CC5)cc4)n3)n2)n1` [Compound 71, 1-[4-[[4-[[2-(6-methyl-2-pyridyl)pyrimidin-4-yl]amino]pyrimidin-2-yl]amino]phenyl]piperidine-4-carboxylic acid], in assay [1], the Ki was 0.0398 to 0.316 nM. Also, the IC50 in assay [2] was 25.1 to 158 nM.

Take `Cc1cccc(-c2nccc(Nc3ccnc(Nc4cccc(C(=O)N5CCOCC5)c4)n3)n2)n1` [Compound 72, [3-[[4-[[2-(6-methyl-2-pyridyl)pyrimidin-4-yl]amino]pyrimidin-2-yl]amino]phenyl]-morpholino-methanone]: in assay [1], the Ki is 0.398 to 3.16 nM. In addition, in assay [2], the IC50 was 25.1 to 158 nM.

Turning to `Cc1cccc(-c2nccc(Nc3ccnc(Nc4ccc(CN5CCC[C@H](C(=O)OCC6CN(C)C6)C5)cc4)n3)n2)n1` [Compound 73, (1-methylazetidin-3-yl)methyl (3S)-1-[[4-[[4-[[2-(6-methyl-2-pyridyl)pyrimidin-4-yl]amino]pyrimidin-2-yl]amino]phenyl]methyl] piperidine-3-carboxylate], the Ki in assay [1] is 0.0398 to 0.316 nM. For the same compound, the IC50 in assay [2] is 25.1 to 158 nM.

In the case of `Cc1cccc(-c2nccc(Nc3ccnc(Nc4ccc(CN5CC[C@H](O)C5)cc4)n3)n2)n1` [Compound 74, (3S)-1-[[4-[[4-[[2-(6-methyl-2-pyridyl)pyrimidin-4-yl]amino]pyrimidin-2-yl]amino]phenyl]methyl] pyrrolidin-3-ol], the Ki in assay [1] is 0.0398 to 0.316 nM. Moreover, the IC50 in assay [2] was 25.1 to 158 nM.

For `Cc1cccc(-c2nccc(Nc3ccnc(Nc4ccc(CN5C[C@H]6CC[C@@H](C5)N6)cc4)n3)n2)n1` [Compound 75, N4-[2-(6-methyl-2-pyridyl)pyrimidin-4-yl]-N2-[4-[[rac-(1S,5R)-3,8-diazabicyclo[3.2.1]octan-3-yl]methyl]phenyl]pyrimidine-2,4-diamine], in assay [1], the Ki is 0.0398 to 0.316 nM. In addition, the IC50 in assay [2] was 25.1 to 158 nM.

As to `Cc1cccc(-c2nccc(Nc3ccnc(Nc4ccc(NC(=O)C5CNC5)cc4)n3)n2)n1` [Compound 76, N-[4-[[4-[[2-(6-methyl-2-pyridyl)pyrimidin-4-yl]amino]pyrimidin-2-yl]amino]phenyl]azetidine-3-carboxamide], the Ki in assay [1] was 0.0398 to 0.316 nM. Also, the IC50 in assay [2] was not above 20 nM.

As to `Cc1cccc(-c2nccc(Nc3ccnc(Nc4ccc(NC(=O)C5CCN(C6CCOCC6)CC5)cc4)n3)n2)n1` [Compound 77, N-[4-[[4-[[2-(6-methyl-2-pyridyl)pyrimidin-4-yl]amino]pyrimidin-2-yl]amino]phenyl]-1-tetrahydropyran-4-yl-piperidine-4-carboxamide], in assay [1], the Ki is 0.0398 to 0.316 nM. The IC50 in assay [2] was 25.1 to 158 nM.

`Cc1cccc(-c2nccc(Nc3ccnc(Nc4ccc(NC(=O)C5CCNC5)cc4)n3)n2)n1` (stereo not drawn) [Compound 78, N-[4-[[4-[[2-(6-methyl-2-pyridyl)pyrimidin-4-yl]amino]pyrimidin-2-yl]amino]phenyl]pyrrolidine-3-carboxamide]: in assay [1], the Ki is 0.0398 to 0.316 nM. Also, the IC50 in assay [2] is not above 20 nM.

For `COc1cc(Nc2nccc(Nc3ccnc(-c4cccc(C)n4)n3)n2)ccc1N1CCOCC1` [Compound 79, N2-(3-methoxy-4-morpholino-phenyl)-N4-[2-(6-methyl-2-pyridyl)pyrimidin-4-yl]pyrimidine-2,4-diamine], the Ki in assay [1] is 0.0398 to 0.316 nM. In addition, the IC50 in assay [2] was 25.1 to 158 nM.

Take `CCN1CCN(c2ccc(Nc3nccc(Nc4ccnc(-c5cccc(C)n5)n4)n3)cc2)CC1` [Compound 80, N2-[4-(4-ethylpiperazin-1-yl)phenyl]-N4-[2-(6-methyl-2-pyridyl)pyrimidin-4-yl]pyrimidine-2,4-diamine]: the Ki in assay [1] was 0.0398 to 0.316 nM. The IC50 in assay [2] was 25.1 to 158 nM.

For `Cc1cccc(-c2nccc(Nc3ccnc(Nc4ccc(C)c(CN5C[C@@H](C)N[C@@H](C)C5)c4)n3)n2)n1` [Compound 81, N4-[2-(6-methyl-2-pyridyl)pyrimidin-4-yl]-N2-[4-methyl-3-[[rac-(3R,5S)-3,5-dimethylpiperazin-1-yl]methyl]phenyl]pyrimidine-2,4-diamine], the Ki in assay [1] is 0.0398 to 0.316 nM. Further, in assay [2], the IC50 was 25.1 to 158 nM.

As to `Cc1cccc(-c2nccc(Nc3ccnc(Nc4ccc(CC(=O)O)cc4)n3)n2)n1` [Compound 82, 2-[4-[[4-[[2-(6-methyl-2-pyridyl)pyrimidin-4-yl]amino]pyrimidin-2-yl]amino]phenyl]acetic acid], the Ki in assay [1] was 0.398 to 3.16 nM. Besides, in assay [2], the IC50 was 1580 to 10000 nM.

In the case of `COC(=O)C1CCCN(c2ccc(Nc3nccc(Nc4ccnc(-c5cccc(C)n5)n4)n3)cc2)C1` (stereo not drawn) [Compound 83, methyl 1-[4-[[4-[[2-(6-methyl-2-pyridyl)pyrimidin-4-yl]amino]pyrimidin-2-yl]amino]phenyl]piperidine-3-carboxylate], in assay [1], the Ki is 0.0398 to 0.316 nM. The IC50 in assay [2] was 25.1 to 158 nM.

Regarding `Cc1cccc(-c2nccc(Nc3ccnc(Nc4cnn(CCN5CCOCC5)c4)n3)n2)n1` [Compound 84, N4-(2-(6-methylpyridin-2-yl)pyrimidin-4-yl)-N2-(1-(2-morpholinoethyl)-1H-pyrazol-4-yl)pyrimidine-2,4-diamine], the Ki in assay [1] was 0.0398 to 0.316 nM. Besides, in assay [2], the IC50 is 25.1 to 158 nM.

In the case of `Cc1cccc(-c2nccc(Nc3ccnc(Nc4cc(C(=O)OC5CCNCC5)cs4)n3)n2)n1` [Compound 85, 4-piperidyl 5-[[4-[[2-(6-methyl-2-pyridyl)pyrimidin-4-yl]amino]pyrimidin-2-yl]amino]thiophene-3-carboxylate], the Ki in assay [1] is 0.0398 to 0.316 nM. Moreover, in assay [2], the IC50 is 25.1 to 158 nM.
